Values of other authors, collected in article PMC4278936 (Journal of computer-aided molecular design, 2014).

Target: T1, PfENR (Plasmodium falciparum, UniProt Q9BH77)
T1 sequence (Q9BH77 22-432): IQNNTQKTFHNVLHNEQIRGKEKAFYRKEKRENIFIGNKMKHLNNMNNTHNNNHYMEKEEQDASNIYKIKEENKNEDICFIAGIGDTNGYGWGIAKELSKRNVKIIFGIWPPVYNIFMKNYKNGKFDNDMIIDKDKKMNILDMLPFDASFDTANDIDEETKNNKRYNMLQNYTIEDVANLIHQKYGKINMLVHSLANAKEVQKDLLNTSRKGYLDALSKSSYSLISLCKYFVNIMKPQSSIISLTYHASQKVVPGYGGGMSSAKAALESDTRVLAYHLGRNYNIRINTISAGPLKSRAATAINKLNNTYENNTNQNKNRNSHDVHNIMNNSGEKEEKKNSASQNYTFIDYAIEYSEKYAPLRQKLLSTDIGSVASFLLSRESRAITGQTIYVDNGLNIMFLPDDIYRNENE
Conditions: ref [32], [60]

In the case of `Oc1cc(Cl)ccc1Oc1ccc(Cl)cc1Cl` [compound 1, Triclosan], the “Concentration range in which TCL inhibits PfENR” value is listed as “picomolar to nanomolar range”.
